Read-outs that look alike come from different tables or passages of the source.
Biological target: CFTR (Homo sapiens, UniProt P13569)
Experiment: Membrane potential dye, Enteroid Assay A
Format: cell-based
Settings: for Ent. A Max Activity: chloride transport as % of triple combination control (Enteroid Assay A); for EC50: human enteroid cells, 18-24 hours, acute 10 μM forskolin and 300 nM ivacaftor, read-out: Ent. A EC50
Description: Base medium (ADF+++) consisted of Advanced DMEM/Ham's F12, 2 mM Glutamax, 10 mM HEPES, […] penicillin/streptomycin.
Intestinal enteroid maintenance medium (IEMM) consisted of ADF+++, 1× B27 supplement, 1× N2 supplement, 1.25 mM N-acetyl cysteine, 10 mM Nicotinamide, 50 ng/mL hEGF, 10 nM Gastrin, 1 μg/mL hR-spondin-1, 100 ng/mL hNoggin, TGF-b type 1 inhibitor A-83-01, 100 μg/mL Primocin, 10 μM P38 MAPK inhibitor SB202190.
Bath 1 Buffer consisted of 1 mM MgCl2, 160 mM NaCl, 4.5 mM KCl, 10 mM HEPES, 10 mM Glucose, 2 mM CaCl2).
Chloride Free Buffer consisted of 1 mM Magnesium Gluconate, 2 mM Calcium Gluconate, 4.5 mM Potassium Gluconate, 160 mM Sodium Gluconate, 10 mM HEPES, 10 mM Glucose.
BathI Dye Solution consisted of Bath 1 Buffer, 0.04% Pluronic F127, 20 μM Methyl Oxonol, 30 μM CaCCinh-A01, 30 μM Chicago Sky Blue.
Chloride Free Dye Solution consisted of Chloride Free Buffer, 0.04% Pluronic F127, 20 μM Methyl Oxonol, 30 μM CaCCinh-A01, 30 μM Chicago Sky Blue.
Chloride Free Dye Stimulation Solution consisted of Chloride Free Dye Solution, 10 μM forskolin, 100 μM IBMX, and 300 nM Compound III.
Human intestinal epithelial enteroid cells were obtained from the Hubrecht Institute for Developmental Biology and Stem Cell Research, Utrecht, The Netherlands and expanded in T-Flasks as previously described (Dekkers J F, Wiegerinck C L, de Jonge H R, Bronsveld I, Janssens H M, de Winter-de Groot K M, Brandsma A M, de Jong N W M, Bijvelds M J C, Scholte B J, Nieuwenhuis E E S, van den Brink S, Clevers H, van der Ent C K, Middendorp S and M Beekman J M. A functional CFTR assay using primary cystic fibrosis intestinal organoids. Nat Med. 2013 July;19(7):939-45.).
3. Enteroid Cell Harvesting and Seeding
Cells were recovered in cell recovery solution, collected by centrifugation at 650 rpm for 5 min at 4° C., resuspended in TrypLE and incubated for 5 min at 37° C. Cells were then collected by centrifugation at 650 rpm for 5 min at 4° C. and resuspended in IEMM containing 10 μM ROCK inhibitor (RI). The cell suspension was passed through a 40 μm cell strainer and resuspended at 1×10^6 cells/mL in IEMM containing 10 μM RI. Cells were seeded at 5000 cells/well into multi-well plates and incubated for overnight at 37° C., 95% humidity and 5% CO2 prior to assay.
4. Membrane Potential Dye, Enteroid Assay A
Enteroid cells were incubated with test compound in IEMM for 18-24 hours at 37° C., 95% humidity and 5% CO2. […] Briefly, cells were washed 5 times in Bath 1 Buffer. Bath 1 Dye Solution was added, and the cells were incubated for 25 min at room temperature. Following dye incubation, cells were washed 3 times in Chloride Free Dye Solution. Chloride transport was initiated by addition of Chloride Free Dye Stimulation Solution and the fluorescence signal was read for 15 min. […] Chloride transport was then expressed as a percentage of the chloride transport following treatment with 3 μM N-[(6-amino-2-pyridyl)sulfonyl]-6-(3-fluoro-5-isobutoxy-phenyl)-2-[(4S)-2,2,4-trimethylpyrrolidin-1-yl]pyridine-3-carboxamide, 3 μM (R)-1-(2,2-difluorobenzo[d][1,3]dioxol-5-yl)-N-(1-(2,3-dihydroxypropyl)-6-fluoro-2-(1-hydroxy-2-methylpropan-2-yl)-1H-indol-5-yl)cyclopropanecarboxamide and 300 nM acute N-[2,4-bis(1,1-dimethylethyl)-5-hydroxyphenyl]-1,4-dihydro-4-oxoquinoline-3-carboxamide triple combination control (% Activity).

Sequence of CFTR (P13569 with tags, fused parts or gaps DEL508-508): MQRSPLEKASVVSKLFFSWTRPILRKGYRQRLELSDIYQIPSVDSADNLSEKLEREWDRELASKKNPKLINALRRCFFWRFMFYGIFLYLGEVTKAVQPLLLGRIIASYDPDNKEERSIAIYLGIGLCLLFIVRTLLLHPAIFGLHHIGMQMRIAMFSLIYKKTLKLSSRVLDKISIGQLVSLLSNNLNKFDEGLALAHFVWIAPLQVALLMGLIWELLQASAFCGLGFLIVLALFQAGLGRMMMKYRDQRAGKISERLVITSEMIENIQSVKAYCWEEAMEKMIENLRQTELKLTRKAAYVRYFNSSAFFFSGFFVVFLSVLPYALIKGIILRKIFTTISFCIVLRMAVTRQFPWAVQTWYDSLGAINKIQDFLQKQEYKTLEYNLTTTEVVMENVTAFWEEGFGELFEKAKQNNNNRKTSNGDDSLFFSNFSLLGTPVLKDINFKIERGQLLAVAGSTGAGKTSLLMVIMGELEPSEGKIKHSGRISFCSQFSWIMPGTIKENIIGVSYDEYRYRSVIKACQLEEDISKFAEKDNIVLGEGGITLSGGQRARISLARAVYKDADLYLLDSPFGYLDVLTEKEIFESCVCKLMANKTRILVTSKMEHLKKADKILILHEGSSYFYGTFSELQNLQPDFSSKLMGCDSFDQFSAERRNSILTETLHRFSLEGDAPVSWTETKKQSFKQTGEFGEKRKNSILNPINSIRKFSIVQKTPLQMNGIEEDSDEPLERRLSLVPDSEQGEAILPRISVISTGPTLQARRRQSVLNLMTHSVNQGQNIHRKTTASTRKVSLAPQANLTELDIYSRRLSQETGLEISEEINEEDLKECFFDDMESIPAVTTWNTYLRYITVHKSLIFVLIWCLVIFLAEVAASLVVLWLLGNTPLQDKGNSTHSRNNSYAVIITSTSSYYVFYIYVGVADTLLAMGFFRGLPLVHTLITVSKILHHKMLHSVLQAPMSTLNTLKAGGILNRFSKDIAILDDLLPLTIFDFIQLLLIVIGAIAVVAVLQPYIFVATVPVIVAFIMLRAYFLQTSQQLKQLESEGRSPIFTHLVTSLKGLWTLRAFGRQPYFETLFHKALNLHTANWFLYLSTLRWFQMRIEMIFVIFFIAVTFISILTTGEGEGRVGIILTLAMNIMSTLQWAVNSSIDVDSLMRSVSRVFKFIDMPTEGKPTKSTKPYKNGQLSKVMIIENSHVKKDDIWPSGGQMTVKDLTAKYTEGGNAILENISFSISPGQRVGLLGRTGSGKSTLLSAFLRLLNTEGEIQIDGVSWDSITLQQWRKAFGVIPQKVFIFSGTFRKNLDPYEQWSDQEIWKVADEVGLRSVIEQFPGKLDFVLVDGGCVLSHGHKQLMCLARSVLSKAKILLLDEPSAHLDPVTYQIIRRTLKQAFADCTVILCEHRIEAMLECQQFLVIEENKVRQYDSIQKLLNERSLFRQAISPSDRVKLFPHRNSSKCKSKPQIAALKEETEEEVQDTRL

Row | SMILES | Ent. A Max Activity (Table 7) | EC50 (Table 7) [µM] | Ent. A Max Activity (Table 6) | EC50 (Table 6) [µM]
1 | COc1ncccc1CN1C(=O)c2cccc(c2)S(=O)(=O)Nc2nc(cc(-c3c(C)cccc3C)n2)OC[C@H]1CC(C)C [Compound 420] |  |  | +++ (+++ is >60%) | < 1
2 | Cc1cccc(C)c1-c1cc2nc(n1)NS(=O)(=O)c1cccc(c1)C(=O)N(CCC1CCOCC1)[C@H](CC1(C(F)(F)F)CC1)CO2 [Compound 681] | +++ (+++ is >60%) | < 1 |  | 
3 | Cc1cccc(C)c1-c1cc2nc(n1)NS(=O)(=O)c1cccc(c1)C(=O)N(Cc1ccc(C3=CCN(C)CC3)cc1)[C@H](CC(C)C)CO2 [Compound 86, (11R)-6-(2,6-Dimethylphenyl)-11-isobutyl-12-[[4-(1-methyl-3,6-dihydro-2H-pyridin-4-yl)phenyl]methyl]-2,2-dioxo-9-oxa-2λ^6-thia-3,5,12,19-tetrazatricyclo[12.3.1.14,8]nonadeca-1(18),4(19),5,7,14,16-hexaen-13-one] |  |  | +++ (+++ is >60%) | < 1
4 | Cc1cccc(C)c1-c1cc2nc(n1)NS(=O)(=O)c1cccc(c1)C(=O)N(CCC1CCCCC1)[C@H](CC(C)C)CO2 [Compound 358] |  |  | +++ (+++ is >60%) | < 1
5 | CC[C@H](O)CNc1ccc(CN2C(=O)c3cccc(c3)S(=O)(=O)Nc3nc(cc(-c4c(C)cccc4C)n3)OC[C@H]2CC(C)C)cn1 [Compound 948] | +++ (+++ is >60%) | 1 to 3 |  | 
6 | Cc1cccc(C)c1-c1cc2nc(n1)NS(=O)(=O)c1cccc(c1)C(=O)N(Cc1ccc(N3CCC(C)(C#N)CC3)nc1)[C@H](CC(C)C)CO2 [Compound 938] | +++ (+++ is >60%) | < 1 |  | 
7 | Cc1cccc(C)c1-c1cc2nc(n1)NS(=O)(=O)c1cccc(c1)C(=O)N(Cc1cncn1C)[C@H](CC(C)C)CO2 [Compound 365] |  |  | +++ (+++ is >60%) | 1 to 3
8 | Cc1cccc(C)c1-c1cc2nc(n1)NS(=O)(=O)c1cccc(c1)C(=O)N(C)CC(c1ccccc1)O2 (centres unmarked) [Compound 677] |  |  | +++ (+++ is >60%) | < 1
9 | COC(=O)c1ccc(CN2C(=O)c3cccc(c3)S(=O)(=O)Nc3nc(cc(-c4c(C)cccc4C)n3)OC[C@H]2CC(C)C)cn1 [Compound 95, Methyl 5-{[(11R)-6-(2,6-Dimethylphenyl)-11-(2-methylpropyl)-2,2,13-trioxo-9-oxa-2λ^6-thia-3,5,12,19-tetraazatricyclo[12.3.1.14,8]nonadeca-1(18),4(19),5,7,14,16-hexaen-12-yl]methyl}pyridine-2-carboxylate] | +++ (+++ is >60%) | < 1 |  | 
10 | Cc1cccc(C)c1-c1cc2nc(n1)NS(=O)(=O)c1cccc(c1)C(=O)N(C)C[C@@H](c1cccc(C(C)(C)C)c1)O2 (single isomer, unassigned) [Compound 17, 10-(3-tert-butylphenyl)-6-(2,6-dimethylphenyl)-12-methyl-2,2-dioxo-9-oxa-2λ^6-thia-3,5,12,19-tetrazatricyclo[12.3.1.14,8]nonadeca-1(18),4(19),5,7,14,16-hexaen-13-one] | +++ (+++ is >60%) | < 1 |  | 
11 | Cc1cccc(C)c1-c1cc2nc(n1)NS(=O)(=O)c1cccc(c1)C(=O)N(Cc1ccccc1)[C@@H](CCC1(C(F)(F)F)CC1)CO2 [Compound 852] |  |  | ++ (++ is 30-60%) | < 1
12 | CNC(=O)c1ccc(CN2C(=O)c3cccc(c3)S(=O)(=O)Nc3nc(cc(-c4c(C)cccc4C)n3)OC[C@H]2CC(C)C)cn1 [Compound 93, 5-{[(11R)-6-(2,6-dimethylphenyl)-11-(2-methylpropyl)-2,2,13-trioxo-9-oxa-2λ^6-thia-3,5,12,19-tetraazatricyclo[12.3.1.14,8]nonadeca-1(18),4(19),5,7,14,16-hexaen-12-yl]methyl}-N-methylpyridine-2-carboxamide] | +++ (+++ is >60%) | < 1 |  | 
13 | Cc1cccc(C)c1-c1cc2nc(n1)NS(=O)(=O)c1cccc(c1)C(=O)N(C)CC(c1ccc(C3=CCOCC3)cc1)O2 (centres unmarked) [Compound 675] |  |  | ++ (++ is 30-60%) | < 1
14 | COc1ccncc1CN1C(=O)c2cccc(c2)S(=O)(=O)Nc2nc(cc(-c3c(C)cccc3C)n2)OC[C@H]1CC(C)C [Compound 421] |  |  | +++ (+++ is >60%) | < 1
15 | Cc1cccc(C)c1-c1cc2nc(n1)NS(=O)(=O)c1cccc(c1)C(=O)N(C[C@H]1CCOC(C)(C)C1)[C@H](CC(C)C)CO2 [Compound 428] |  |  | +++ (+++ is >60%) | < 1
16 | Cc1cccc(C)c1-c1cc2nc(n1)NS(=O)(=O)c1cccc(c1)C(=O)N(Cc1ccccc1)C(C(=O)NCc1ccccc1)CO2 (centres unmarked) [Compound 514] |  |  | + (+ is <30%) | 3 to 30
17 | Cc1cccc(C)c1-c1cc2nc(n1)NS(=O)(=O)c1cccc(c1)C(=O)N(Cc1ccc(NCCN(C)C)nc1)[C@H](CC(C)C)CO2 [Compound 944] | +++ (+++ is >60%) | < 1 |  | 
18 | Cc1cccc(C)c1-c1cc2nc(n1)NS(=O)(=O)c1cccc(c1)C(=O)N(Cc1ccccc1)C(C(=O)NC1CCCCC1)CO2 (centres unmarked) [Compound 515] |  |  | + (+ is <30%) | 1 to 3

Further lines, results first:

Row | Ent. A Max Activity (Table 7) | EC50 (Table 7) [µM] | Ent. A Max Activity (Table 6) | EC50 (Table 6) [µM] | SMILES
19 | +++ (+++ is >60%) | < 1 |  |  | Cc1cccc(C)c1-c1cc2nc(n1)NS(=O)(=O)c1cccc(c1)CN(Cc1cc(C)c3[nH]ncc3c1)[C@H](CC(C)C)CO2 [Compound 1027]
20 | ++ (++ is 30-60%) | < 1 |  |  | Cc1cccc(C)c1-c1cc2nc(n1)NS(=O)(=O)c1cccc(c1)C(=O)N(C)[C@H](c1ccc(C(C)(C)C)cc1)CO2 [Compound 1010]
21 | + (+ is <30%) | 1 to 3 |  |  | Cc1cccc(C)c1-c1cc2nc(n1)NS(=O)(=O)c1cccc(c1)CN(C(=O)CC1CCCCC1)[C@H](CC(C)C)CO2 [Compound 1050]
22 | +++ (+++ is >60%) | < 1 |  |  | Cc1cccc(C)c1-c1cc2nc(n1)NS(=O)(=O)c1cccc(c1)C(=O)N(Cc1ccc(N3CCCC(C)C3)nc1)[C@H](CC(C)C)CO2 (some centres unmarked) [Compound 964]
23 |  |  | + (+ is <30%) |  | Cc1cccc(C)c1-c1cc2nc(n1)NS(=O)(=O)c1cccc(c1)C(=O)N(C)CC(CNCCC(C)(C)C)O2 (centres unmarked) [Compound 1019]
24 | ++ (++ is 30-60%) | < 1 |  |  | Cc1cccc(C)c1-c1cc2nc(n1)NS(=O)(=O)c1cccc(c1)CN(Cc1ccc(Oc3ccccc3)cc1)[C@H](CC(C)C)CO2 [Compound 1030]
25 | ++ (++ is 30-60%) | < 1 |  |  | CCc1nccc(CN2Cc3cccc(c3)S(=O)(=O)Nc3nc(cc(-c4c(C)cccc4C)n3)OC[C@H]2CC(C)C)n1 [Compound 1035]
26 |  |  | + (+ is <30%) |  | Cc1cccc(C)c1-c1cc2nc(n1)NS(=O)(=O)c1cccc(c1)C(=O)N(C)CCO2 [Compound 979]
27 | + (+ is <30%) | 3 to 30 |  |  | Cc1cccc(C)c1-c1cc2nc(n1)NS(=O)(=O)c1cccc(c1)C(=O)N(CCC1CCOCC1)[C@H](C)CO2 [Compound 988]
28 | ++ (++ is 30-60%) | < 1 |  |  | Cc1cccc(C)c1-c1cc2nc(n1)NS(=O)(=O)c1cccc(c1)CN(Cc1ccc3c(c1)OC(F)(F)O3)[C@H](CC(C)C)CO2 [Compound 1032]
29 | ++ (++ is 30-60%) | 1 to 3 |  |  | Cc1cccc(C)c1-c1cc2nc(n1)NS(=O)(=O)c1cccc(c1)C(=O)N(CCC1CCOCC1)[C@H](CC(F)(F)F)CO2 [Compound 982]
